Reference: US10781224B2, “Bis(oxymethyl)phosphinic acid and biogenic metal salts thereof as regulators of plant growth and development” (priority 2016, dated 2020)

Assays:
[1] = tested on: corn (Krasnodar 385 MV variety); experiment: Corn seed treatment with BHMPA salts: germination energy and germination rate; assay type: in vivo
How it was run: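 Corn, winter wheat and rice seeds (50 per dish, on filter paper) were soaked for 1 h in BHMPA or its metal salts at 1·10^−6-1·10^−12%, with water as control. Germination energy was read on day 4 and germination rate on day 8 for wheat and day 7 for rice and corn, following GOST 12038-84, as the mean of four replicates.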

rice (Diamant variety) = experiment: Rice seed treatment with BHMPA salts: germinating power; assay type: in vivo
How it was run: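 Seeds (50 per Petri dish on two layers of filter paper) soaked 1 h in BHMPA or its Ca, Mg, Na, Co, Mn, Cu or Zn salts at 1·10^−6-1·10^−12%, with water controls. Germination energy read on day 4, germination on day 8 (wheat) or day 7 (rice, corn), as % means of four replicates. Germinating power taken as root and sprout length plus wet and dry mass per 100 seedlings.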

[2] = comparative study vs Melaphen, 1·10^−9% solution
[3] = rice seed treatment, comparison with Melaphen (Table XXXIII), solution 1 · 10^−9%
[4] = rice seeds, solution concentration 1 · 10^−6%
[5] = rice seeds, solution concentration 1 · 10^−7%
[6] = rice seeds, solution concentration 1 · 10^−8%
[7] = rice seeds, solution concentration 1 · 10^−9%
[8] = rice seeds, solution concentration 1 · 10^−10%
[9] = rice seeds, solution concentration 1 · 10^−11%
[10] = rice seeds, solution concentration 1 · 10^−12%
[11] = rice, vs control, 1·10^−9% solution

## O.O.O=P([O-])(CO)CO.O=P([O-])(CO)CO.[Mn+2] [Mn-salt, Manganese BHMPA Salt]
[1]; 1·10^−6% solution
  Germination energy: 81.0%
  Germination rate: 83.3%
[1]; 1·10^−7% solution
  Germination energy: 82.3%
  Germination rate: 85.0%
[1]; 1·10^−8% solution
  Germination energy: 84.7%
  Germination rate: 87.5%
[1]; 1·10^−9% solution
  Germination energy: 87.7%
  Germination rate: 88.7%
[1]; 1·10^−9% solution, listed as Mn
  Germination rate: 90.0%
[1]; 1·10^−10% solution
  Germination energy: 85.0%
  Germination rate: 87.5%
[1]; 1·10^−11% solution
  Germination energy: 82.7%
  Germination rate: 85.3%
[1]; 1·10^−12% solution
  Germination energy: 80.3%
  Germination rate: 83.0%
[1]; [2]
  Germination energy: 87.3%
  Germination rate: 95.0%
Rice (Diamant variety); rice
  optimum concentration for treating rice seeds before sowing: 1·10^−9%
Rice (Diamant variety); [3]
  Length, root: 6.8 cm
  Length, root, + % to control: 42%
  Length, sprout: 4.2 cm
  Length, sprout, + % to control: 35%
  Mass, dry, root: 0.24 g/100 plantlings
  Mass, dry, root, + % to control: 14%
  Mass, dry, sprout: 0.28 g/100 plantlings
  Mass, dry, sprout, + % to control: 12%
  Mass, wet, root: 1.34 g/100 plantlings
  Mass, wet, root, + % to control: 37%
  Mass, wet, sprout: 2.34 g/100 plantlings
  Mass, wet, sprout, + % to control: 55%
Rice (Diamant variety); [4]
  Length, root: 6.2 cm
  Length, root, + % to control: 3%
  Length, sprout: 2.7 cm
  Length, sprout, + % to control: 8%
  Mass, dry, root: 0.22 g/100 plantlings
  Mass, dry, root, + % to control: 10%
  Mass, dry, sprout: 0.29 g/100 plantlings
  Mass, dry, sprout, + % to control: 11.5%
  Mass, wet, root: 1.13 g/100 plantlings
  Mass, wet, root, + % to control: 15%
  Mass, wet, sprout: 1.80 g/100 plantlings
  Mass, wet, sprout, + % to control: 5%
Rice (Diamant variety); [5]
  Length, root: 6.4 cm
  Length, root, + % to control: 7%
  Length, sprout: 2.9 cm
  Length, sprout, + % to control: 16%
  Mass, dry, root: 0.25 g/100 plantlings
  Mass, dry, root, + % to control: 25%
  Mass, dry, sprout: 0.36 g/100 plantlings
  Mass, dry, sprout, + % to control: 38%
  Mass, wet, root: 1.21 g/100 plantlings
  Mass, wet, root, + % to control: 23%
  Mass, wet, sprout: 2.12 g/100 plantlings
  Mass, wet, sprout, + % to control: 23%
Rice (Diamant variety); [6]
  Length, root: 6.5 cm
  Length, root, + % to control: 8%
  Length, sprout: 3.1 cm
  Length, sprout, + % to control: 24%
  Mass, dry, root: 0.28 g/100 plantlings
  Mass, dry, root, + % to control: 40%
  Mass, dry, sprout: 0.41 g/100 plantlings
  Mass, dry, sprout, + % to control: 58%
  Mass, wet, root: 1.30 g/100 plantlings
  Mass, wet, root, + % to control: 33%
  Mass, wet, sprout: 2.26 g/100 plantlings
  Mass, wet, sprout, + % to control: 31%
Rice (Diamant variety); [7]
  Length, root: 6.8 cm
  Length, root, + % to control: 13%
  Length, sprout: 3.3 cm
  Length, sprout, + % to control: 32%
  Mass, dry, root: 0.32 g/100 plantlings
  Mass, dry, root, + % to control: 60%
  Mass, dry, sprout: 0.44 g/100 plantlings
  Mass, dry, sprout, + % to control: 69%
  Mass, wet, root: 1.44 g/100 plantlings
  Mass, wet, root, + % to control: 47%
  Mass, wet, sprout: 2.41 g/100 plantlings
  Mass, wet, sprout, + % to control: 40%
Rice (Diamant variety); [8]
  Length, root: 6.7 cm
  Length, root, + % to control: 12%
  Length, sprout: 3.0 cm
  Length, sprout, + % to control: 12%
  Mass, dry, root: 0.26 g/100 plantlings
  Mass, dry, root, + % to control: 30%
  Mass, dry, sprout: 0.39 g/100 plantlings
  Mass, dry, sprout, + % to control: 50%
  Mass, wet, root: 1.33 g/100 plantlings
  Mass, wet, root, + % to control: 36%
  Mass, wet, sprout: 2.30 g/100 plantlings
  Mass, wet, sprout, + % to control: 34%
Rice (Diamant variety); [9]
  Length, root: 6.5 cm
  Length, root, + % to control: 8%
  Length, sprout: 2.9 cm
  Length, sprout, + % to control: 16%
  Mass, dry, root: 0.23 g/100 plantlings
  Mass, dry, root, + % to control: 15%
  Mass, dry, sprout: 0.36 g/100 plantlings
  Mass, dry, sprout, + % to control: 38%
  Mass, wet, root: 1.29 g/100 plantlings
  Mass, wet, root, + % to control: 31%
  Mass, wet, sprout: 2.21 g/100 plantlings
  Mass, wet, sprout, + % to control: 28%
Rice (Diamant variety); [10]
  Length, root: 6.3 cm
  Length, root, + % to control: 5%
  Length, sprout: 2.7 cm
  Length, sprout, + % to control: 8%
  Mass, dry, root: 0.20 g/100 plantlings
  Mass, dry, root, + % to control: 0%
  Mass, dry, sprout: 0.32 g/100 plantlings
  Mass, dry, sprout, + % to control: 23%
  Mass, wet, root: 1.27 g/100 plantlings
  Mass, wet, root, + % to control: 29%
  Mass, wet, sprout: 2.14 g/100 plantlings
  Mass, wet, sprout, + % to control: 24%
Rice (Diamant variety); [11]
  dry mass of the roots increased by: 60%
  dry mass of the sprouts increased by: 69%
  length of the root increased by: 13%
  length of the sprout increased by: 32%
  wet mass of the roots increased by: 47%
  wet mass of the sprouts increased by: 40%
